Assay results reported in patent publication US5646180A (priority 1995, dated 1997).
Like-named read-outs stand apart in the source and are kept apart here.

How the values were obtained:
[1] = cited from earlier work
HIV-1 protease = assay: ligand for / inhibition of HIV-1 protease; format: biochemical
HIV-2 protease = assay: ligand for / inhibition of HIV-2 protease; format: biochemical
HIV-1 virus = assay: HIV-1 infection of immortalized human T cells, assay of extracellular p24 antigen; format: cell-based; conditions: over a period of days
Source text: Accordingly, the compound is capable of targeting and inhibiting late stage events in HIV replication, i.e., the processing of the viral polyproteins by HIV encoded proteases. […] Because aspartyl protease is essential for the production of mature virions, inhibition of that processing effectively blocks the spread of virus by inhibiting the production of infectious virions, particularly from chronically infected cells. […] Other anti-viral assays have confirmed the potency of this compound.

HIV = format: cell-based
[2] = Source text: […]. The potential of this compound to be delivered at doses far exceeding its effective antiviral level is advantageous in slowing or preventing the possibility of resistant variants developing.
oral availability = format: in vivo; conditions: oral administration, mammals
aqueous solubility = format: physicochemical; conditions: water
[3] = prior-art HIV drugs, background statement, nucleosides compared with AZT

## Cc1cn([C@H]2C=C[C@@H](CO)O2)c(=O)[nH]c1=O [d4T]
[1]; [3]
  CNS distribution / CNS penetration (in words): even worse distribution profiles in the CNS

## CC(C)CN(CC(O)C(Cc1ccccc1)NC(=O)OC1CCOC1)S(=O)(=O)c1ccc(N)cc1 (stereo not shown) [Compound I]
HIV-1 protease
  ligand for HIV-1 protease (in words): excellent ligand
HIV-2 protease
  ligand for HIV-2 protease (in words): excellent ligand
HIV-1 virus
  inhibition of the ability of HIV-1 to infect immortalized human T cells (in words): inhibits the ability of the HIV-1 virus to infect immortalized human T cells
HIV
  combination effect in preventing the replication of HIV in human T cells (in words): acts in an additive or synergistical manner
[2]
  therapeutic index (in words): impressively high therapeutic index
Oral availability
  oral availability (in words): surprisingly impressive oral availability
Aqueous solubility
  solubility: ≥ 100 µg/mL

## CC(C)c1nc(CN(C)C(=O)N[C@H](C(=O)N[C@@H](Cc2ccccc2)C[C@H](O)[C@H](Cc2ccccc2)NC(=O)OCc2cncs2)C(C)C)cs1 [ABT 538]
[1]; in vivo
  CNS distribution / CNS penetration (in words): very limited CNS penetration

## CC(C)(C)NC(=O)[C@@H]1CN(Cc2cccnc2)CCN1C[C@@H](O)C[C@@H](Cc1ccccc1)C(=O)N[C@H]1c2ccccc2C[C@H]1O [Compound L-535524]
[1]; [3]
  CNS distribution / CNS penetration (in words): about the same distribution
